Consider 18 compounds from US11845760B2, “PRMT5 inhibitors” (AMGEN INC., priority 2020, dated 2023).

One test concerns HCT116 MTAP null cells. Briefly: HCT116 MTAP null cell line proliferation (CellTiter-Glo cell viability, 6 days). Format: cell-based. Particulars: HCT116 MTAP null cells, 6 days of treatment, CellTiter-Glo cell viability, read-out: HCT-116 MTAP null IC50. The gist of the method: (§1)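 Isogenic HCT116 pair (both MTAP alleles knocked out vs parent) in RPMI 1640 + 10% FBS, seeded overnight at 37° C, 5% CO2, then exposed 6 days to 8- or 9-point 1:3 dilutions from 1 or 10 μM. CellTiter-Glo luminescence; IC50 from sigmoidal fit, Hill slope fixed −1, top 100%, or 4-parameter logistic.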

The test system of a further test is HCT116 WT cells. As to the kind of experiment: HCT116 WT cell line proliferation (CellTiter-Glo cell viability, 6 days). Particulars: HCT116 WT (parent) cells, 6 days of treatment, CellTiter-Glo cell viability, read-out: HCT-116 WT IC50. Format: cell-based. The procedure, abridged:
as §1

SMILES strings stand for the structures. Like-named read-outs stand apart in the source and are kept apart here.

As for `C[C@@H]1COC[C@H](c2ccc(OC(F)F)nn2)N1C(=O)c1cc2c3c(c(N)nc2cn1)COC3` (racemic) [Example 381, (4-amino-1,3-dihydrofuro[3,4-c][1,7]naphthyridin-8-yl)((3R,5S)-3-(6-(difluoromethoxy)-3-pyridazinyl)-5-methyl-4-morpholinyl)methanone and (4-amino-1,3-dihydrofuro[3,4-c][1,7]naphthyridin-8-yl)((3S,5R)-3-(6-(difluoromethoxy)-3-pyridazinyl)-5-methyl-4-morpholinyl)methanone], the half-maximal inhibitory concentration (IC50) was determined as 0.084 µM in the test with HCT116 MTAP null cells and 2.57 µM with HCT116 WT cells.

Take `Nc1nc2cnc(C(=O)N3CCOCC3c3ccc(OC(F)F)c(F)c3)cc2c2c1COC2` (racemic) [Example 383, (4-amino-1,3-dihydrofuro[3,4-c][1,7]naphthyridin-8-yl)((3R)-3-(4-(difluoromethoxy)-3-fluorophenyl)-4-morpholinyl)methanone and (4-amino-1,3-dihydrofuro[3,4-c][1,7]naphthyridin-8-yl)((3S)-3-(4-(difluoromethoxy)-3-fluorophenyl)-4-morpholinyl)methanone]: the figures for the IC50 with HCT116 MTAP null cells and in the test with HCT116 WT cells were 0.437 µM and 13.9 µM, respectively.

Consider `Nc1nc2cc(Cl)c(C(=O)N3CCOCC3c3ccc(OC(F)F)nc3)cc2c2c1COC2` (racemic) [Example 384, (4-amino-7-chloro-1,3-dihydrofuro[3,4-c]quinolin-8-yl)((3R)-3-(6-(difluoromethoxy)-3-pyridinyl)-4-morpholinyl)methanone and (4-amino-7-chloro-1,3-dihydrofuro[3,4-c]quinolin-8-yl)((3S)-3-(6-(difluoromethoxy)-3-pyridinyl)-4-morpholinyl)methanone], for which the 50% inhibitory concentration (IC50) in the test with HCT116 MTAP null cells came to 0.023 µM; in the test on HCT116 WT cells, 1.68 µM.

As for `Nc1nc2cc(F)c(C(=O)N3CCOCC3c3ccc(OC(F)F)nc3)cc2c2c1COC2` (racemic) [Example 385, (4-amino-7-fluoro-1,3-dihydrofuro[3,4-c]quinolin-8-yl)((3R)-3-(6-(difluoromethoxy)-3-pyridinyl)-4-morpholinyl)methanone and (4-amino-7-fluoro-1,3-dihydrofuro[3,4-c]quinolin-8-yl)((3S)-3-(6-(difluoromethoxy)-3-pyridinyl)-4-morpholinyl)methanone], the IC50 came out at 0.151 µM in the test with HCT116 MTAP null cells and 5.83 µM in the test with HCT116 WT cells.

On to `Nc1nc2cnc(C(=O)N3CCOCC3c3ccc(OC(F)(F)F)cc3F)cc2c2c1COC2` (racemic) [Example 386, (4-amino-1,3-dihydrofuro[3,4-c][1,7]naphthyridin-8-yl)((3R)-3-(2-fluoro-4-(trifluoromethoxy)phenyl)-4-morpholinyl)methanone and (4-amino-1,3-dihydrofuro[3,4-c][1,7]naphthyridin-8-yl)((3S)-3-(2-fluoro-4-(trifluoromethoxy)phenyl)-4-morpholinyl)methanone], for which the 50% inhibitory concentration (IC50) turned out to be 0.344 µM in the test with HCT116 MTAP null cells and 5.02 µM in the test with HCT116 WT cells.

Take `Nc1nc2cnc(C(=O)N3CCOCC3c3ccc(C(F)(F)F)cc3F)cc2c2c1COC2` (racemic) [Example 387, (4-amino-1,3-dihydrofuro[3,4-c][1,7]naphthyridin-8-yl)((3R)-3-(2-fluoro-4-(trifluoromethyl)phenyl)-4-morpholinyl)methanone and (4-amino-1,3-dihydrofuro[3,4-c][1,7]naphthyridin-8-yl)((3S)-3-(2-fluoro-4-(trifluoromethyl)phenyl)-4-morpholinyl)methanone]: the IC50 was 0.193 µM in the test with HCT116 MTAP null cells and 7.25 µM in the test on HCT116 WT cells.

`N#Cc1ccc(C2COCCN2C(=O)c2cc3c4c(c(N)nc3cn2)COC4)cc1` (racemic) [Example 388, 4-((3R)-4-((4-amino-1,3-dihydrofuro[3,4-c][1,7]naphthyridin-8-yl)carbonyl)-3-morpholinyl)benzonitrile and 4-((3S)-4-((4-amino-1,3-dihydrofuro[3,4-c][1,7]naphthyridin-8-yl)carbonyl)-3-morpholinyl)benzonitrile]: the IC50 in the test with HCT116 MTAP null cells (HCT116-MTAP null, 144 h) is 0.838 µM; in the test with HCT116 WT cells (Homo sapiens, HCT-116, 144 h), 32.8 µM.

On to `C[C@H]1COC[C@@H](c2ccc(C#N)cc2)N1C(=O)c1cc2c3c(c(N)nc2cn1)COC3` (racemic) [Example 389, 4-((3R,5S)-4-((4-amino-1,3-dihydrofuro[3,4-c][1,7]naphthyridin-8-yl)carbonyl)-5-methyl-3-morpholinyl)benzonitrile and 4-((3S,5R)-4-((4-amino-1,3-dihydrofuro[3,4-c][1,7]naphthyridin-8-yl)carbonyl)-5-methyl-3-morpholinyl)benzonitrile], for which the IC50 came out at 0.052 µM in the test with HCT116 MTAP null cells (HCT116-MTAP null, 144 h) and 1.61 µM in the test on HCT116 WT cells (Homo sapiens, HCT-116, 144 h).

Take `C[C@@H]1COC[C@H](c2ccc(OC(F)F)c(F)c2)N1C(=O)c1cc2c3c(c(N)nc2cn1)COC3` (racemic) [Example 390, (4-amino-1,3-dihydrofuro[3,4-c][1,7]naphthyridin-8-yl)((3R,5S)-3-(4-(difluoromethoxy)-3-fluorophenyl)-5-methyl-4-morpholinyl)methanone and (4-amino-1,3-dihydrofuro[3,4-c][1,7]naphthyridin-8-yl)((3S,5R)-3-(4-(difluoromethoxy)-3-fluorophenyl)-5-methyl-4-morpholinyl)methanone]: the IC50 in the test on HCT116 MTAP null cells stood at 0.165 µM; with HCT116 WT cells it was 6.36 µM.

For `CCOc1ccc(C2COCCN2C(=O)c2cc3c4c(c(N)nc3cc2Cl)COC4)nn1` (racemic) [Example 391, (4-amino-7-chloro-1,3-dihydrofuro[3,4-c]quinolin-8-yl)((3R)-3-(6-ethoxy-3-pyridazinyl)-4-morpholinyl)methanone and (4-amino-7-chloro-1,3-dihydrofuro[3,4-c]quinolin-8-yl)((3S)-3-(6-ethoxy-3-pyridazinyl)-4-morpholinyl)methanone], the 50% inhibitory concentration (IC50) with HCT116 MTAP null cells (HCT116-MTAP null, 144 h) is 0.073 µM; with HCT116 WT cells (Homo sapiens, HCT-116, 144 h), 3.39 µM.

As to `CCOc1ccc(C2COCCN2C(=O)c2cc3c4c(c(N)nc3cc2F)COC4)nn1` (racemic) [Example 392, (4-amino-7-fluoro-1,3-dihydrofuro[3,4-c]quinolin-8-yl)((3R)-3-(6-ethoxy-3-pyridazinyl)-4-morpholinyl)methanone and (4-amino-7-fluoro-1,3-dihydrofuro[3,4-c]quinolin-8-yl)((3S)-3-(6-ethoxy-3-pyridazinyl)-4-morpholinyl)methanone], the IC50 was 0.216 µM in the test on HCT116 MTAP null cells (HCT116-MTAP null, 144 h) and greater than 10 µM in the test on HCT116 WT cells (Homo sapiens, HCT-116, 144 h).

For `CCOc1ccc([C@@H]2COCCN2C(=O)c2ccc3nc(N)c4c(c3c2)CO[C@@H]4C)nn1` (racemic) [Example 393, ((3R)-4-amino-3-methyl-1,3-dihydrofuro[3,4-c]quinolin-8-yl)((3R)-3-(6-ethoxy-3-pyridazinyl)-4-morpholinyl)methanone and ((3R)-4-amino-3-methyl-1,3-dihydrofuro[3,4-c]quinolin-8-yl)((3S)-3-(6-ethoxy-3-pyridazinyl)-4-morpholinyl)methanone], the half-inhibitory concentration (IC50) with HCT116 MTAP null cells (HCT116-MTAP null, 144 h) is 0.971 µM; in the test on HCT116 WT cells (Homo sapiens, HCT-116, 144 h) it was greater than 50 µM.

Turning to `Nc1nc2cc(F)c(C(=O)N3CCC(c4ccc(C(F)(F)F)cn4)C3)cc2c2c1COC2` (racemic) [Example 412, (4-amino-7-fluoro-1,3-dihydrofuro[3,4-c]quinolin-8-yl)((3R)-3-(5-(trifluoromethyl)-2-pyridinyl)-1-pyrrolidinyl)methanone and (4-amino-7-fluoro-1,3-dihydrofuro [3,4-c]quinolin-8-yl)((3S)-3-(5-(trifluoromethyl)-2-pyridinyl)-1-pyrrolidinyl)methanone], the 50% inhibitory concentration (IC50) came to 0.725 µM in the test with HCT116 MTAP null cells (HCT116-MTAP null, 144 h) and 20.8 µM in the test on HCT116 WT cells (Homo sapiens, HCT-116, 144 h).

For `C[C@H]1OCc2c1c(N)nc1ccc(C(=O)N3C[C@@H](c4ccccc4)[C@H](c4ccccc4)C3)cc21` (racemic) [Example 431, ((3R)-4-amino-3-methyl-1,3-dihydrofuro[3,4-c]quinolin-8-yl)((3R,4R)-3,4-diphenyl-1-pyrrolidinyl)methanone and ((3R)-4-amino-3-methyl-1,3-dihydrofuro[3,4-c]quinolin-8-yl)((3S,4S)-3,4-diphenyl-1-pyrrolidinyl)methanone], the IC50 turned out to be 0.337 µM with HCT116 MTAP null cells (HCT116-MTAP null, 144 h) and 11.4 µM with HCT116 WT cells (Homo sapiens, HCT-116, 144 h).

With `C[C@H]1OCc2c1c(N)nc1ccc(C(=O)N3C[C@@H](c4ccc(F)cc4)[C@H](c4cc[nH]n4)C3)cc21` (racemic) [Example 434, ((3R)-4-amino-3-methyl-1,3-dihydrofuro[3,4-c]quinolin-8-yl)((3R,4S)-3-(4-fluorophenyl)-4-(1H-pyrazol-3-yl)-1-pyrrolidinyl)methanone and ((3R)-4-amino-3-methyl-1,3-dihydrofuro[3,4-c]quinolin-8-yl)((3S,4R)-3-(4-fluorophenyl)-4-(1H-pyrazol-3-yl)-1-pyrrolidinyl)methanone], the half-maximal inhibitory concentration (IC50) is 0.468 µM with HCT116 MTAP null cells (HCT116-MTAP null, 144 h) and 8.22 µM with HCT116 WT cells (Homo sapiens, HCT-116, 144 h).

As to `Nc1nc2ncc(C(=O)N3CCOCC3c3ccc(C(F)(F)F)cc3)cc2c2c1COC2` (racemic) [Example 483, rac-(4-amino-1,3-dihydrofuro[3,4-c][1,8]naphthyridin-8-yl)(3-(4-(trifluoromethyl)phenyl)morpholino)methanone], the 50% inhibitory concentration (IC50) in the test on HCT116 MTAP null cells (HCT116-MTAP null, 144 h) was greater than 1 µM; in the test with HCT116 WT cells (Homo sapiens, HCT-116, 144 h), greater than 10 µM.

Consider `N#Cc1cnc(C2COCCN2C(=O)c2ccc3nc(N)c4c(c3c2)COC4)cc1Cl` (racemic) [Example 492, 4-chloro-6-[rac-(3S)-4-(4-amino-1,3-dihydrofuro[3,4-c]quinoline-8-carbonyl)morpholin-3-yl]pyridine-3-carbonitrile], for which the IC50 is 0.764 µM in the test with HCT116 MTAP null cells (HCT116-MTAP null, 144 h) and 0.318 µM with HCT116 WT cells (Homo sapiens, HCT-116, 144 h).

Regarding `Nc1nc2ccc(C(=O)N3CCOCC3c3ccccc3)cc2c2c1COC2` (racemic) [Example 493, (4-amino-1,3-dihydrofuro[3,4-c]quinolin-8-yl)-[rac-(3S)-3-phenylmorpholin-4-yl]methanone], the half-maximal inhibitory concentration (IC50) in the test on HCT116 MTAP null cells (HCT116-MTAP null, 144 h) was greater than 1 µM; in the test on HCT116 WT cells (Homo sapiens, HCT-116, 144 h), greater than 10 µM.
